Measurements published in patent US8222281B2, “Carboxylic acid compound” (Daiichi Sankyo Company, Limited, priority 2008, dated 2012).

System: genetically obese impaired glucose tolerance rats (Crlj:ZUC-Lepr^fa/Lepr^fa rats)
Experiment: Oral glucose tolerance test
Type: in vivo
Details: Rattus norvegicus, 0.5 h, glucose 2 g/kg oral 30 minutes after compound, blood glucose 30 minutes after glucose loading, vs control group, read-out: Blood glucose lowering index (%); for inhibition in vivo at 1 mg/kg: dose 1 mg/kg oral; for inhibition in vivo at 0.3 mg/kg: dose 0.3 mg/kg oral
Protocol: Oral Glucose Tolerance Test
Commercially available genetically obese impaired glucose tolerance rats (Crlj:ZUC-Lepr^fa/Lepr^fa rats, male, 11 weeks of age at the time of use, purchased from Charles River Laboratories Japan, Inc.)
(2) Experimental Method and Results
The rats were preliminarily reared for 2 weeks by feeding them laboratory chow (FR-2, Funabashi Farm Co., Ltd.) ad libitum. Then, the rats were fasted for 15 to 18 hours and used as test animals. A suspension was prepared such that the concentration of a test compound fell within a range from 0.075 to 0.25 mg/mL using a 0.5% solution of methyl cellulose (Wako Pure Chemical Industries, Ltd.). The test compound was orally administered by gavage to the rats (6 rats in each group) at a dose of 0.3 to 1 mg/kg. To the rats in the control group, a 0.5% solution of methyl cellulose was orally administered at a dose of 4 mL/kg. The oral glucose loading was performed such that a glucose solution (Otsuka Glucose Injection 50%, Otsuka Pharmaceutical Co., Ltd.) was orally administered at a dose of 2 g/kg after 30 minutes from administration of the test compound.
The blood was collected from the tail vein of each rat, and the blood glucose level was measured after 30 minutes from the oral glucose loading using a fully automatic blood glucose meter (Glucoroder GXT, A& T Corporation), and the blood glucose lowering index (%) was calculated from the following equation.
Blood glucose lowering index (%)=[1−(blood glucose level in test compound administration group)/(blood glucose level in control group)]×100

| SMILES | inhibition in vivo at 1 mg/kg | inhibition in vivo at 0.3 mg/kg |
| --- | --- | --- |
| CCOC(CC(=O)O)c1ccc(OCc2ccc(Cl)c(Cl)c2)cc1 (centres unmarked) [Example 1, 3-{4-[(3,4-Dichlorobenzyl)oxy]phenyl}-3-ethoxypropionic acid] | 25% |  |
| CCO[C@@H](CC(=O)O)c1ccc(OCc2ccc(Cl)c(Cl)c2)cc1 [Example 16, (3S)-3-{4-[(3,4-Dichlorobenzyl)oxy]phenyl}-3-ethoxypropionic acid] | 39% |  |
| CCOC(CC(=O)O)c1ccc(OCc2ccc(C(F)(F)F)cc2)nc1 (centres unmarked) [Example 17, 3-Ethoxy-3-(6-{[4-(trifluoromethyl)benzyl]oxy}pyridin-3-yl)propionic acid] | 38% |  |
| CCO[C@@H](CC(=O)O)c1ccc(OCc2ccc(C(F)(F)F)cc2)nc1 [Example 18, (3S)-3-Ethoxy-3-(6-{[4-(trifluoromethyl)benzyl]oxy}pyridin-3-yl)propionic acid] | 35% |  |
| CCOC(CC(=O)O)c1ccc(OCc2ccccc2C)cc1 (centres unmarked) [Example 20, 3-Ethoxy-3-{4-[(2-methylbenzyl)oxy]phenyl}propionic acid] | 15% |  |
| CCOC(CC(=O)O)c1ccc(Oc2ccc(C#N)c3ccccc23)cc1 (centres unmarked) [Example 23, 3-{4-[(4-Cyano-1-naphthyl)oxy]phenyl}-3-ethoxypropionic acid] | 16% |  |
| CCOC(CC(=O)O)c1ccc(Oc2cc(Cl)cc(Cl)c2)cc1 (centres unmarked) [Example 24, 3-[4-(3,5-Dichlorophenoxy)phenyl]-3-ethoxypropionic acid] | 37% |  |
| CCOC(CC(=O)O)c1ccc(Oc2cc(Cl)ccc2Cl)cc1 (centres unmarked) [Example 25, 3-[4-(2,5-Dichlorophenoxy)phenyl]-3-ethoxypropionic acid] | 39% |  |
| CCO[C@@H](CC(=O)O)c1ccc(OCc2ccc(C(F)(F)F)cc2)cc1 [Example 49, (3S)-3-Ethoxy-3-(4-{[4-(trifluoromethyl)benzyl]oxy}phenyl)propionic acid] | 37% |  |
| CCO[C@@H](CC(=O)O)c1ccc(O[C@@H]2CCc3c(Cl)cccc32)cc1 [Example 50, (3S)-3-(4-{[(1R)-4-Chloro-2,3-dihydro-1H-inden-1-yl]oxy}phenyl)-3-ethoxypropionic acid] | 38% |  |
| CCO[C@@H](CC(=O)O)c1ccc(O[C@@H]2CCc3c2cccc3C(F)(F)F)cc1 [Example 51, (3S)-3-Ethoxy-3-(4-{[(1R)-4-(trifluoromethyl)-2,3-dihydro-1H-inden-1-yl]oxy}phenyl)propionic acid] | 42% |  |
| CCO[C@@H](CC(=O)O)c1ccc(O[C@H]2CCc3c(Cl)cccc32)cc1 [Example 52, (3S)-3-(4-{[(1S)-4-Chloro-2,3-dihydro-1H-inden-1-yl]oxy}phenyl)-3-ethoxypropionic acid] | 15% |  |
| CCO[C@@H](CC(=O)O)c1ccc(OC2CCc3c2cccc3C(F)(F)F)cc1 (stereo partly drawn) [Example 53, (3S)-3-Ethoxy-3-(4-{[4-(trifluoromethyl)-2,3-dihydro-1H-inden-1-yl]oxy}phenyl)propionic acid] | 41% |  |
| CCO[C@@H](CC(=O)O)c1ccc(O[C@@H]2COc3c(OC(F)(F)F)cccc32)cc1 [Example 55, (3S)-3-Ethoxy-3-(4-{[(3S)-7-(trifluoromethoxy)-2,3-dihydro-1-benzofuran-3-yl]oxy}phenyl)propionic acid] |  | 38% |
| CCO[C@@H](CC(=O)O)c1ccc(O[C@@H]2CCc3c2ccc(F)c3C(F)(F)F)cc1 [Example 56, (3S)-3-Ethoxy-3-(4-{[(1R)-5-fluoro-4-(trifluoromethyl)-2,3-dihydro-1H-inden-1-yl]oxy}phenyl)-propionic acid] |  | 40% |
| CCO[C@@H](CC(=O)O)c1ccc(O[C@@H]2CCc3c(CC)cccc32)cc1 [Example 57, (3S)-3-Ethoxy-3-(4-{[(1R)-4-ethyl-2,3-dihydro-1H-inden-1-yl]oxy}phenyl)propionic acid] | 50% |  |
| CCO[C@@H](CC(=O)O)c1ccc(O[C@@H]2CCc3c(C)cccc32)cc1 [Example 58, (3S)-3-Ethoxy-3-(4-{[(1R)-4-methyl-2,3-dihydro-1H-inden-1-yl]oxy}phenyl)propionic acid] | 35% |  |
| CCO[C@@H](CC(=O)O)c1ccc(O[C@@H]2CCc3c(C(F)F)cccc32)cc1 [Example 59, (3S)-3-(4-{[(1R)-4-(Difluoromethyl)-2,3-dihydro-1H-inden-1-yl]oxy}phenyl)-3-ethoxypropionic acid] |  | 32% |
| CCO[C@@H](CC(=O)O)c1ccc(O[C@@H]2COc3c2cccc3C(F)(F)F)cc1 [Example 60, (3S)-3-Ethoxy-3-(4-{[(3S)-7-(trifluoromethyl)-2,3-dihydro-1-benzofuran-3-yl]oxy}phenyl)propionic acid] | 48% |  |
| CCO[C@@H](CC(=O)O)c1ccc(O[C@@H]2CCc3c2cc(F)cc3C(F)(F)F)cc1 [Example 61, (3S)-3-Ethoxy-3-(4-{[(1R)-6-fluoro-4-(trifluoromethyl)-2,3-dihydro-1H-inden-1-yl]oxy}phenyl)-propionic acid] |  | 34% |
| CCO[C@@H](CC(=O)O)c1ccc(O[C@@H]2CCc3c(C)cc(C)cc32)cc1 [Example 62, (3S)-3-(4-{[(1R)-4,6-Dimethyl-2,3-dihydro-1H-inden-1-yl]oxy}phenyl)-3-ethoxypropionic acid] |  | 33% |
| CCO[C@@H](CC(=O)O)c1ccc(O[C@@H]2CCc3c(OC(F)(F)F)cccc32)cc1 [Example 63, (3S)-3-Ethoxy-3-(4-{[(1R)-4-(trifluoromethoxy)-2,3-dihydro-1H-inden-1-yl]oxy}phenyl)propionic acid] | 45% |  |
| CCO[C@@H](CC(=O)O)c1ccc(O[C@@H]2CCc3c(C4CC4)cccc32)cc1 [Example 64, (3S)-3-(4-{[(1R)-4-Cyclopropyl-2,3-dihydro-1H-inden-1-yl]oxy}phenyl)-3-ethoxypropionic acid] |  | 30% |
